Tests used:
[1] = system: Lactate Dehydrogenase (LDH); assay: Western blot, Lactate Dehydrogenase levels; type: cell-based, human
Experimental: The samples were processed and run on a 4-12% Bis-Tris Novex NuPAGE gel as described above. The gels were run, transferred and stained essentially as described above.
After transfer each blot was dried for 15-20 minutes, activated with methanol for 5 seconds, washed with water for 5 minutes, and TBST for 15 minutes. The blots were blocked for 1 hour with 5% blocking reagent in TBS-T at room temperature and then washed 3 times with TBS-T (1X−15′; 2X5′ each) and probed with the primary antibody for Lactate Dehydrogenase (abcam ab2101; polyclonal) in 5% BSA (at 1:1000 dilutions) by incubation overnight at 4 deg C. with shaking. After the overnight incubation with primary antibody for Lactate Dehydrogenase, the blots were washed 3 times with TBS-T (1X−15′; 2X5′ each) and probed with the secondary antibody (rabbit antigoat; 1:10,000 dilution) for 1 h at room temperature. After 1 h of incubation with secondary antibodies, the blots were washed 3 times with TBS-T (1X−15′; 2X5′ each) and then incubated with ECF reagent for 5 mins and then each blot scanned with 5100 Fuji Laser scanner at 25 uM resolution, 16 bit, green laser, at 400V and at 500 V. […]
The levels of LDH and PDH were determined by probing the blots successively with primary antibodies for LDH and PDH, essentially as described above. […]

SK-MEL-28 mitochondria = conditions: human, 48 h, 100 µM
Experimental: Cells were centrifuged, pelleted, flash frozen and stored at −80° C. until the mitochondria were isolated. Cell pellets were thawed, resuspended and ruptured in Dounce homogenizer. The homogenate was centrifuged and mitochondria were isolated using reagents and the protocol recommended by the Mitochondria Isolation kit for Cultured cells (MitoSciences, Eugene Oreg., Cat #MS852). The mitochondrial fraction was aliquoted and stored at −80° C.
Analysis was by LC-MS/MS on a Waters Quattro II triple quadrupole mass spectrometer with a Prism RP 1×100 mm, 5 μm particle size column (Keystone Scientific). Isocratic elution with 4 mM ammonium formate in 20% isopropyl alcohol 80% methanol at a flow rate of 50 μl/min. Ten μl of each sample was injected.

SkBr-3 cells = assay: Real-time PCR Apoptosis Array; type: cell-based, human
Experimental: RNA was quantified by measuring Optical Density at 260 nm.
Changes in mRNA levels were evaluated using real-time PCR quantification to assess mRNA levels in pre-selected subsets containing […] pathway specific targets.
The assay method of RT-PCR was utilized to provide a measure of mRNA level changes to a total of 84 apoptotic pathway related proteins.

SKBr3 = assay: Nexin assay for apoptosis (Annexin-V-PE/7-AAD, flow cytometry); type: cell-based, human; conditions: 50 μM or 100 μM Q10, 24 hours
Description: The 7AAD dye will enter into cells with permeabilized cell membranes; primarily those cells that are in late apoptosis. Annexin-V-PE is a dye that binds to Phosphotidyl serine, which is exposed on the outer surface of the plasma membrane in early apoptotic cells. The Nexin reagent thus can be used to differentiate between different populations of apoptotic cells in a flow cytometer.

[2] = system: HepG2 (liver cancer) cells; assay: Real-time PCR Angiogenesis Array; type: cell-based; conditions: 100 μM Q10, genes: ANGPTL3, ANGPTL4, CXCL1, CXCL3, CXCL5, ENG, ID3, MMP2, TIMP3
Experimental: The treatment was initiated on 1×10^5 cells per well, following the procedure utilized in the PaCa2 cells (above Examples 9-11). However, the total amount of RNA that was extracted from these samples was lower than expected. Reverse transcription is normally done using 1 μg of total RNA (determined by measurement at 260 nm). The maximum volume that can be used per reverse transcription is 8 μl.

With `COC1=C(OC)C(=O)C(C/C=C(\C)CC/C=C(\C)CC/C=C(\C)CC/C=C(\C)CC/C=C(\C)CC/C=C(\C)CC/C=C(\C)CC/C=C(\C)CC/C=C(\C)CCC=C(C)C)=C(C)C1=O` [Q10, Coenzyme Q10] the LDH expression ([1]; cancer) was “reduced Lactate Dehydrogenase (LDH) expression in cancer”, the LDH expression ([1]; normal cells) was “minimal effect on normal cells” and the Q10H2 (SK-MEL-28 mitochondria) was 0.28 ng/Sample. The “increase in the levels of Q10H2” value (SK-MEL-28 mitochondria) was 3 fold, the “mRNAs Bcl2, Bcl2L1, Bcl2L11, Birc6, Bax, Xiap, Hprt1, Apaf1, Abl1, Braf” value (SkBr-3 cells; SkBr3, Q10 24 hr) was “affected” and the “Bcl-xl mRNA level” value (SkBr-3 cells; apoptosis array) was “significant up-regulation”. The “early and late apoptosis” value (SKBr3) was “did not show any significant increases of early and late apoptosis” and the “genes regulated in the Angiogenesis Arrays” value [2] was “List of genes regulated in the Angiogenesis Arrays”.
